Structures can show the parent of a compound that is named as a salt. Where two headings read alike, the source gives them in different places.
Tests used:
[1] = test system: proinflammatory (M1) and anti-inflammatory (M2) markers in macrophages; test: EAE model (MBP immunization), ex vivo realtime PCR analysis of M1 and M2 macrophage markers; assay type: in vivo, rats; conditions: macrophages ex vivo (splenic, day 13 post MBP-immunization; CNS infiltrating cells), compound treated vs control
Method: A further study was carried out to study the impact of Lp-PLA2 inhibitors on modulating M1/M2 imbalance. In this study, rats were induced to develop experimental autoimmune encephalomyelitis (EAE) by immunization with myelin basic protein (MBP) antigen and treated with a known Lp-PLA2 inhibitor: 549-Methoxy-4-oxo-6,7-dihydro-4H-pyrimido[6,1-a]isoquinolin-2-yl)oxy)-2-(3-(trifluoromethyl)phenoxy)benzonitrile (See PCT application no. PCT/CN2011/001597) For preventive treatment, compound administration started at day 0 whereas it started at 7 day in therapeutic treatment. Rats were subsequently monitored for symptoms of EAE. Rats were immunized with MBP to develop EAE and symptoms were monitored daily. Plasma Lp-PLA2 activity and LysoPC concentration were determined at different time points through the course of EAE.
Ex vivo analysis of proinflammatory (M1) and anti-inflammatory (M2) markers in control and compound treated EAE […]. Splenic macrophages were harvested at day 13 post MBP-immunization and assayed for expression of a variety of markers by realtime PCR. CNS infiltrating cells were harvested and macrophages were analyzed for expression of M1 and M2 markers by realtime PCR.

[2] = target: T1, recombinant human Lp-PLA2 (Homo sapiens, UniProt Q13093); test: Recombinant human Lp-PLA2 assay (rhLp-PLA2, PED6 assay); assay type: biochemical
T1 sequence (Q13093 22-441): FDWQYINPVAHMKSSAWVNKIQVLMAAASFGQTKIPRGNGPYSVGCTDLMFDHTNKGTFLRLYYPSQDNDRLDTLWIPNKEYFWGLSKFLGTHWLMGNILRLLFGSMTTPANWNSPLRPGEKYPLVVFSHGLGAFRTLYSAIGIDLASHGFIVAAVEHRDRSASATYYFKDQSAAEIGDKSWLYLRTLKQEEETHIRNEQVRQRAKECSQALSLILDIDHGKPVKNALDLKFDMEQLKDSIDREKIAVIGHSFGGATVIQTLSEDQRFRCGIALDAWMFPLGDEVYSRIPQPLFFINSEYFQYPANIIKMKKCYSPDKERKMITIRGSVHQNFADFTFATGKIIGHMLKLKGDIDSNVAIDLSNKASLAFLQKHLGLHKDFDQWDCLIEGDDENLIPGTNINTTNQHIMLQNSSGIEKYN
From the text: (1) Recombinant Human Lp-PLA2 Assay (rhLp-PLA2) (Also Referred to as “PED6” Assay)
N-((6-(2,4-dinitrophenyl)amino)-hexanoyl)-2-(4,4-difluoro-5,7-dimethyl-4-bora-3a,4a-diaza-s-indacene-3-pentanoyl)-1-hexadecanoyl-sn-glycero-3-phosphoethanolamine, triethylammonium salt (PED6) is a commercially available fluorescently-labelled phospholipid, which is commercially available from Molecular Probes. There is a quenching […] position and a Bodipy fluorescein (FL) group in the sn2 position.
The PED6 assay was run as an unquenched 10 μL assay. Compounds source plate was prepared by making 1:3 (by volume) serial dilution of the compounds into pure DMSO on 384-well microplate. […] 5 μL of recombinant human Lp-PLA2 enzyme (2 nM rhLp-PLA2 in assay buffer of 50 mM HEPES, pH7.4, 150 mM NaCl, 1 mM CHAPS) was added to each well of the plate with compounds. Plates were centrifuged for 10 sec at 500 rpm. […] Plates were centrifuged for 10 sec at 500 rpm. Plate was covered to protect from light and incubated for 20 min at room temperature. […] PIC50 data, curve and QC analysis was conducted by using XL fit module in Excel.

[3] = target: T2, Lp-PLA2 from plasma (pooled human plasma) (Homo sapiens, UniProt Q13093); test: Lp-PLA2 human plasma assay (Thio-PAF assay); assay type: biochemical; conditions: text thresholds, read-out: pIC50 values in the thio-PAF assay (converted)
T2 construct: 8 μL pooled human plasma; from tissue; host or cells: pooled human plasma
T2 sequence (Q13093 22-441): T1 sequence (Q13093 22-441)
From the text: (3) Lipoprotein-Associated Phospholipase A2 (Lp-PLA2) Human Plasma Assay (Also Referred to as “Thio-PAF Assay”)
The human plasma assay utilizes a thioester analog of PAF (phosphatidylcholine), where hydrolysis yields to the formation of a phospholipid containing a free thiol group. The amount of thiol is quantitated continuously by reacting with CPM (7-diethylamino-3-(4′-maleimidylphenyl)-4-methylcoumarin), a maleimide which increases in fluoresence after Michael addition of thiols. This assay may detect the activity of Lp-PLA2 from plasma, as determined by specific inhibition by Lp-PLA2 inhibitors.
The thio-PAF assay was run as a quenched 15 μL assay. Compounds source plate was prepared by making 1:3 (by volume) serial dilution of the compounds into pure DMSO on 384-well microplate. 0.01 μL of compounds on compound source plate were transferred to 384 well Greiner 784076 (black) low-volume plates by ECHO liquid dispenser. 8 μL pooled human plasma, which was previously aliquoted and frozen, was added. Plates were centrifuged for 10 sec at 500 rpm. After 30 minutes preincubation, 2 μL of substrate (2.5 mM thio-PAF, 3.2 mM NEM (N-ethylmaleimide) [made fresh daily in DMSO], and 32 μM CPM [from a DMSO stock] in assay buffer of 50 mM HEPES, pH7.4, 150 mM NaCl, 1 mM CHAPS was added to 384 well Greiner 784076 (black) low-volume plates by BRAVO liquid handling station. Plates were centrifuged for 10 sec at 500 rpm. Plate was covered to protect from light and incubated for 2 min at room temperature. Reaction was quenched with 5 μL of 5% aqueous trifluoroacetic acid (TFA). Plates were covered to protect from light and incubated for 40 min at room temperature. Plates were read at ex: 380/em: 485 using-Envision microplate reader. PIC50 data, curve and QC analysis was conducted by using XLFit module in Excel.

[4] = text thresholds, upper limit for pIC50 in this assay is 9.3, read-out: pIC50 values in the PED6 assay (converted)
[5] = upper limit for pIC50 obtained in this PED6 assay is 9.3, read-out: rhLp-PLA2 (PED6 assay) (pIC50) (converted)

IC50 [2, 4] [nM]	IC50 [3] [nM]	IC50 [2, 5] [nM]	Structure (SMILES)	M1 markers (expression by realtime PCR) [1]	M2 markers (expression by realtime PCR) [1]
			COc1ccc2c(c1)CCn1c-2cc(Oc2ccc(Oc3cccc(C(F)(F)F)c3)c(C#N)c2)nc1=O	decrease	increase
≤ 1	≤ 1000		COc1ncc(Cc2c[nH]c(SCc3ccc(Oc4ccc(Cl)c(C(F)(F)F)c4)c(C#N)c3)nc2=O)cn1 [E84, 2-{[4-chloro-3-(trifluoromethyl)phenyl]oxy}-5-{[(5-{[2-(methyloxy)-5-pyrimidinyl]methyl}-4-oxo-1,4-dihydro-2-pyrimidinyl)thio]methyl}benzonitrile]		
≤ 1	≤ 100		COc1ncc(Cc2cn(C)c(SCc3ccc(Oc4ccc(Cl)c(C(F)(F)F)c4)cc3)nc2=O)cn1 [E75, 2-{[(4-{[4-chloro-3-(trifluoromethyl)phenyl]oxy}phenyl)methyl]thio}-1-methyl-5-{[2-(methyloxy)-5-pyrimidinyl]methyl}-4(1H)-pyrimidinone]		
≤ 10	≤ 100	2.51	Cc1nnc(Cc2c[nH]c(OCCc3ccc(Oc4ccc(Cl)c(C(F)(F)F)c4)cc3)nc2=O)o1 [E134, 2-{[2-(4-{[4-chloro-3-(trifluoromethyl)phenyl]oxy}phenyl)ethyl]oxy}-5-[(5-methyl-1,3,4-oxadiazol-2-yl)methyl]-4(1H)-pyrimidinone]		
≤ 10	≤ 100		O=c1nc(NCCc2ccc(Oc3ccc(F)cc3)cc2)[nH]cc1Cc1cncnc1 [E188, 2-{2-[4-(4-Fluoro-phenoxy)-phenyl]-ethylamino}-5-pyrimidin-5-ylmethyl-1H-pyrimidin-4-one]		
≤ 1	≤ 100		Cn1cc(Cc2cn(C)c(SCc3ccc(Oc4cccc(C(F)(F)F)c4)c(C#N)c3)nc2=O)cn1 [E95, 5-(((1-methyl-5-((1-methyl-1H-pyrazol-4-yl)methyl)-4-oxo-1,4-dihydropyrimidin-2-yl)thio)methyl)-2-(3-(trifluoromethyl)phenoxy)benzonitrile, trifluoroacetic acid salt]		
≤ 1	≤ 100		Cn1cc(Cc2cn(C)c(SCc3ccc(Oc4cc(Cl)ccn4)cc3)nc2=O)cn1 [E93, 2-[({4-[(4-chloro-2-pyridinyl)oxy]phenyl}methyl)thio]-1-methyl-5-[(1-methyl-1H-pyrazol-4-yl)methyl]-4(1H)-pyrimidinone]		
≤ 10	≤ 100	7.94	COc1ncc(Cc2c[nH]c(NCCc3ccc(Oc4ccc(C(F)(F)F)cn4)c(C#N)c3)nc2=O)cn1 [E202, 5-{2-[5-(2-methoxy-pyrimidin-5-ylmethyl)-4-oxo-1,4-dihydro-pyrimidin-2-yl]-amino}-ethyl-2-(5-trifluoromethyl-pyridin-2-yloxy)benzonitrile]		
≤ 10	≤ 1000	3.16	O=c1cc(Cc2c[nH]c(NCCc3ccc(Oc4ccc(Cl)c(C(F)(F)F)c4)cc3)nc2=O)cc[nH]1 [E216, 2-{2-[4-(4-Chloro-3-trifluoromethyl-phenoxy)-phenyl]-ethylamino}-5-(2-oxo-1,2-dihydro-pyridin-4-ylmethyl)-1H-pyrimidin-4-one]		
≤ 10	≤ 1000		COc1ncc(Cc2c[nH]c(OCCc3ccc(Oc4ccc(Cl)c(C(F)(F)F)n4)cc3)nc2=O)cn1 [E161, 2-(4-((5-chloro-6-(trifluoromethyl)pyridin-2-yl)oxy)phenethoxy)-5-((2-methoxypyrimidin-5-yl)methyl)pyrimidin-4(1H)-one]		
≤ 10	≤ 100		Cc1ccc(Cc2c[nH]c(NCCc3ccc(Oc4ccc(Cl)c(C(F)(F)F)c4)cc3)nc2=O)cn1 [E210, 2-{2-[4-(4-Chloro-3-trifluoromethyl-phenoxy)-phenyl]-ethylamino}-5-(6-methyl-pyridin-3-ylmethyl)-1H-pyrimidin-4-one]		
≤ 1	≤ 100		Cc1ccc(Oc2ccc(CCOc3nc(=O)c(Cc4cncnc4)c[nH]3)cc2)cc1Cl [E150, 2-[(2-{4-[(3-chloro-4-methylphenyl)oxy]phenyl}ethyl)oxy]-5-[pyrimidin-5-ylmethyl]-4(1H)-pyrimidinone]		
≤ 1	≤ 1000		N#Cc1cc(CSc2nc(=O)c(Cc3cncnc3)c[nH]2)ccc1Oc1ccc(F)c(C(F)(F)F)c1 [E87, 2-{[4-fluoro-3-(trifluoromethyl)phenyl]oxy}-5-({[4-oxo-5-(5-pyrimidinylmethyl)-1,4-dihydro-2-pyrimidinyl]thio}methyl)benzonitrile]		

— patent US8637536B2, “Pyrimidinone compounds for use in the treatment of diseases or conditions mediated by Lp-PLA2” (Glaxo Group Limited, priority 2010, dated 2014)
